Test results: patent US9120749B2, “Quinoline derivatives and MELK inhibitors containing the same” (ONCOTHERAPY SCIENCE, INC., priority 2010, dated 2015)
Counter-ions that a name gives are not always drawn. Like-named read-outs stand apart in the source and are kept apart here.

Tests used:
[1] = target: MELK (Homo sapiens, UniProt Q14680); experiment: Kinase assay: MELK activity, phosphorylation of FITC-labeled histone H3 peptide measured by IMAP fluorescence polarization; assay type: biochemical; conditions: read-out: IC50 (μM) (kinase assay)
Sequence of MELK (Q14680 whole entry, looked up): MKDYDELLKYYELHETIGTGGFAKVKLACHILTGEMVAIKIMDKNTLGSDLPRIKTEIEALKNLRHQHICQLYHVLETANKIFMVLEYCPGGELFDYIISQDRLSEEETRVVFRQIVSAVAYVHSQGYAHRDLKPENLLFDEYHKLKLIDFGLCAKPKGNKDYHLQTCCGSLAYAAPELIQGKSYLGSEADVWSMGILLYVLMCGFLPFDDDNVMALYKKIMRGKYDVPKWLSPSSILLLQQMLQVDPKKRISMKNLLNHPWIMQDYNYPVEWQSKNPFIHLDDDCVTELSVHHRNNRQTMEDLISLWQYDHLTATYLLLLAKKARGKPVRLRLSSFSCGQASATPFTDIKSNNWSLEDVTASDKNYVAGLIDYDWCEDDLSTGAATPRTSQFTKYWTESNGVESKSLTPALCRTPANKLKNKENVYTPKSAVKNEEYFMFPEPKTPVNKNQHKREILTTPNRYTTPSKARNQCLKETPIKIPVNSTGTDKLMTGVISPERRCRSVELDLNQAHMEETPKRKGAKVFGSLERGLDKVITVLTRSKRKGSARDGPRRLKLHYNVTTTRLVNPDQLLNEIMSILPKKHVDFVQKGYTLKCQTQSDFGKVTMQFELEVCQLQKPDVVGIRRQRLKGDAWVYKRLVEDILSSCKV
Outline: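 Kinase reactions ran with or without test compound (final DMSO 1%) on a fluorescein-tagged H3 peptide. Progressive binding solution was added to terminate them. After a half-hour room-temperature incubation, polarization was measured.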

[2] = system: A549 cells; experiment: Cell-based assay: anti-proliferative activity, Cell Counting Kit-8, 72 hours (A549); conditions: 72 hours
Outline: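 A549 cells were seeded in 96-well plates and exposed to candidate inhibitors for 72 hours. Cell growth was then measured with Cell Counting Kit-8, and IC50 values were calculated from the resulting growth data.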

[3] = system: T47D cells; experiment: Cell-based assay: anti-proliferative activity, Cell Counting Kit-8, 72 hours (T47D)
Outline: (§1)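 First, lysates underwent western blotting with anti-MELK antibody to establish expression. Next, cells went into 96-well plates. Then candidate inhibitors were added. Finally, viability was determined by CCK-8 at 72 h and IC50 computed.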

[4] = system: 22Rv1 cells; experiment: Cell-based assay: anti-proliferative activity, Cell Counting Kit-8, 72 hours (22Rv1)
[5] = system: DU4475 cells; experiment: Cell-based assay: anti-proliferative activity, Cell Counting Kit-8, 72 hours (DU4475)
[6] = system: HT-1197 cells; experiment: Cell-based assay: anti-proliferative activity, Cell Counting Kit-8, 72 hours (HT-1197, negative control without MELK expression); conditions: HT1197 cells (negative control, no MELK expression), 72 hours
Outline: as §1

SMILES | IC50 ([1]; hydrochloride) [µM] | IC50 ([2]; hydrochloride) [µM] | IC50 ([3]; 72 hours, hydrochloride) [µM] | IC50 ([4]; Homo sapiens, 22Rv1, 72 h) [µM] | IC50 ([5]; hydrochloride) [µM] | IC50 ([6]; hydrochloride) [µM] | IC50 [1] [µM] | IC50 ([2]; Homo sapiens, A549, 72 h) [µM] | IC50 ([3]; Homo sapiens, T47D, 72 h) [µM] | IC50 ([5]; Homo sapiens, DU-4475, 72 h) [µM] | IC50 ([6]; Homo sapiens, HT1197, 72 h) [µM] | IC50 ([4]; hydrochloride) [µM]
CN(C)CCNc1ccc(Nc2c(C(=O)C3CC3)cnc3ccc(-c4cc(Cl)c(O)c(Cl)c4)cc23)cn1 [Example 748, cyclopropyl(6-(3,5-dichloro-4-hydroxyphenyl)-4-(6-(2-(dimethylamino)ethylamino)pyridin-3-ylamino)quinolin-3-yl)methanone hydrochloride] | 0.0026 | 0.069 | 0.088 | 0.1 | 0.032 | 1.6 |  |  |  |  |  | 
CC(=O)c1cnc2ccc(-c3cc(F)c(O)c(Cl)c3)cc2c1N[C@H]1CC[C@H](N(C)C)CC1 [Example 763, 1-{6-(3-Chloro-5-fluoro-4-hydroxyphenyl)-4-[trans-4-(dimethylamino)cyclohexylamino]quinolin-3-yl}ethanone] |  |  |  | 0.14 |  |  | 0.0087 | 0.27 | 0.05 | 0.093 | 1.8 | 
COc1cc(-c2ccc3ncc(C(=O)C4CC4)c(NC4CCN(C5CCNC5)CC4)c3c2)cc(Cl)c1O (stereo not shown) [Example 764, (6-(3-chloro-4-hydroxy-5-methoxyphenyl)-4-(1-(pyrrolidin-3-yl)piperidin-4-ylamino)quinolin-3-yl)(cyclopropyl)methanone] |  |  |  | 0.95 |  |  | 0.0029 | 1.3 | 0.18 | 0.18 | 5.3 | 
CC(=O)c1cnc2ccc(-c3cc(Cl)c(O)c(Cl)c3)cc2c1N[C@H]1CC[C@H](N(C)C)CC1 [Example 765, 1-{6-(3,5-Dichloro-4-hydroxyphenyl)-4-[trans-4-(dimethylamino)cyclohexylamino]quinolin-3-yl}ethanone] |  |  |  | 0.14 |  |  | 0.0022 | 0.17 | 0.081 | 0.047 | 1.7 | 
CC(=O)c1cnc2ccc(-c3cc(Cl)c(O)c(Cl)c3)cc2c1N[C@H]1CC[C@H](N(C)C)CC1 [Example 766, 1-(6-(3,5-dichloro-4-hydroxyphenyl)-4-(trans-4-(dimethylamino)cyclohexylamino)quinolin-3-yl)ethanone hydrochloride] | 0.0017 | 0.14 | 0.074 |  | 0.06 | 1 |  |  |  |  |  | 0.1
CC(=O)c1cnc2ccc(-c3cc(Cl)c(O)c(Cl)c3)cc2c1N[C@H]1CC[C@H](CN2CCCC2)CC1 [Example 767] |  |  |  | 0.15 |  |  | 0.0018 | 0.16 | 0.12 | 0.083 | 24 | 
CC(=O)c1cnc2ccc(-c3cc(Cl)c(O)c(Cl)c3)cc2c1N[C@H]1CC[C@H](CN2CCCC2)CC1 [Example 768, 1-(6-(3,5-dichloro-4-hydroxyphenyl)-4-(trans-4-(pyrrolidin-1-ylmethyl)cyclohexylamino)quinolin-3-yl)ethanone hydrochloride] | 0.0015 | 0.13 | 0.11 |  | 0.07 | 28 |  |  |  |  |  | 0.11
CCC(=O)c1cnc2ccc(-c3cc(Cl)c(O)c(OC)c3)cc2c1Nc1ccc(CN(C)C)cc1 [Example 769, 1-(6-(3-chloro-4-hydroxy-5-methoxyphenyl)-4-(4-((dimethylamino)methyl)phenylamino)quinolin-3-yl)propan-1-one] |  |  |  | 0.79 |  |  | 0.0049 | 0.48 | 0.12 | 0.14 | 2.8 | 
CCC(=O)c1cnc2ccc(-c3cc(F)c(O)c(Cl)c3)cc2c1Nc1ccc(CN(C)C)cc1 [Example 770, 1-(6-(3-chloro-5-fluoro-4-hydroxyphenyl)-4-((4-((dimethylamino)methyl)phenyl)amino)quinolin-3-yl)propan-1-one] |  |  |  | 0.17 |  |  | 0.015 | 0.11 | 0.074 | 0.062 | 0.84 | 
CCC(=O)c1cnc2ccc(-c3cc(Cl)c(O)c(Cl)c3)cc2c1Nc1ccc(CN(C)C)cc1 [Example 771, 1-(6-(3,5-dichloro-4-hydroxyphenyl)-4-((4-((dimethylamino)methyl)phenyl)amino)quinolin-3-yl)propan-1-one] |  |  |  | 0.16 |  |  | 0.0054 | 0.095 | 0.072 | 0.045 | 0.72 | 
CC(=O)c1cnc2ccc(-c3cc(Cl)c(O)c(Cl)c3)cc2c1N[C@H]1CC[C@H](CN2CCNCC2)CC1 [Example 772, 1-(6-(3,5-dichloro-4-hydroxyphenyl)-4-((trans-4-(piperazin-1-ylmethyl)cyclohexyl)amino)quinolin-3-yl)ethanone dihydrochloride] |  |  |  | 0.14 |  |  | 0.0021 | 0.26 | 0.058 | 0.076 | 3.2 | 
CC(=O)c1cnc2ccc(-c3cc(F)c(O)c(Cl)c3)cc2c1Nc1ccc(N2CCC(N)C2)nc1 (stereo not shown) [Example 773, 1-(4-(6-(3-aminopyrrolidin-1-yl)pyridin-3-ylamino)-6-(3-chloro-5-fluoro-4-hydroxyphenyl)quinolin-3-yl)ethanone] |  |  |  | 0.0094 |  |  | 0.006 | 0.028 | 0.0042 | 0.017 | 0.7 | 
COc1cc(-c2ccc3ncc(C(C)=O)c(Nc4ccc(N5CCC(N)C5)nc4)c3c2)cc(Cl)c1O (stereo not shown) [Example 774, 1-(4-(6-(3-aminopyrrolidin-1-yl)pyridin-3-ylamino)-6-(3-chloro-4-hydroxy-5-methoxyphenyl)quinolin-3-yl)ethanone] |  |  |  | 0.082 |  |  | 0.0019 | 0.045 | 0.034 | 0.056 | 0.71 | 
CCC(=O)c1cnc2ccc(-c3cc(Cl)c(O)c(OC)c3)cc2c1Nc1ccc(N2CCC(N)C2)nc1 (stereo not shown) [Example 775, 1-(4-(6-(3-aminopyrrolidin-1-yl)pyridin-3-ylamino)-6-(3-chloro-4-hydroxy-5-methoxyphenyl)quinolin-3-yl)propan-1-one] |  |  |  | 0.12 |  |  | 0.0034 | 0.049 | 0.049 | 0.065 | 0.75 | 
CN1CCN(c2ccc(Nc3c(C(=O)C4CC4)cnc4ccc(-c5cc(F)c(O)c(F)c5)cc34)cn2)CC1 [Example 778, cyclopropyl(6-(3,5-difluoro-4-hydroxyphenyl)-4-(6-(4-methylpiperazin-1-yl)pyridin-3-ylamino)quinolin-3-yl)methanone] |  |  |  | 0.48 |  |  | 0.021 | 0.17 | 0.1 | 0.22 | 2.6 | 
CC(=O)c1cnc2ccc(-c3cc(Cl)c(O)c(Cl)c3)cc2c1N[C@H]1CC[C@H](CN2CCC(N)C2)CC1 (stereo partly drawn) [Example 779, 1-(4-(1R,4R)-4-((3-aminopyrrolidin-1-yl)methyl)cyclohexylamino)-6-(3,5-dichloro-4-hydroxyphenyl)quinolin-3-yl)ethanone hydrochloride] |  |  |  | 0.23 |  |  | 0.0017 | 1 | 0.14 | 0.13 | 10 | 
COc1cc(-c2ccc3ncc(C(C)=O)c(N[C@H]4CC[C@H](CN5CCC(N)C5)CC4)c3c2)cc(Cl)c1O (stereo partly drawn) [Example 780, 1-(4-(1R,4R)-4-((3-aminopyrrolidin-1-yl)methyl)cyclohexylamino)-6-(3-chloro-4-hydroxy-5-methoxyphenyl)quinolin-3-yl)ethanone hydrochloride] |  |  |  | 0.67 |  |  | 0.002 | 0.62 | 0.41 | 1.5 | 3.2 | 
CC(=O)c1cnc2ccc(-c3cc(F)c(O)c(Cl)c3)cc2c1N[C@H]1CC[C@H](CN2CCN(C)CC2)CC1 [Example 781, 1-(6-(3-chloro-5-fluoro-4-hydroxyphenyl)-4-(1R,4R)-4-((4-methylpiperazin-1-yl)methyl)cyclohexylamino)quinolin-3-yl)ethanone hydrochloride] |  |  |  | 0.34 |  |  | 0.013 | 0.2 | 0.1 | 0.19 | 3.3 | 
CC(=O)c1cnc2ccc(-c3cc(Cl)c(O)c(Cl)c3)cc2c1N[C@H]1CC[C@H](CN2CCN(C)CC2)CC1 [Example 782, 1-(6-(3,5-dichloro-4-hydroxyphenyl)-4-(1R,4R)-4-((4-methylpiperazin-1-yl)methyl)cyclohexylamino)quinolin-3-yl)ethanone hydrochloride] |  |  |  | 0.41 |  |  |  | 0.23 | 0.15 | 0.16 | 5.9 | 
CC(=O)c1cnc2ccc(-c3cc(F)c(O)c(Cl)c3)cc2c1N[C@H]1CC[C@H](CN2CCNCC2)CC1 [Example 783, 1-(6-(3-chloro-5-fluoro-4-hydroxyphenyl)-4-((trans-4-(piperazin-1-ylmethyl)cyclohexyl)amino)quinolin-3-yl)ethanone dihydrochloride] |  |  |  | 0.087 |  |  | 0.0088 | 0.2 | 0.027 | 0.057 | 4.2 | 
CC(=O)c1cnc2ccc(-c3cc(Cl)c(O)c(Cl)c3)cc2c1N[C@H]1CCC[C@@H](CN2CCN(C)CC2)C1 [Example 835, 1-(6-(3,5-dichloro-4-hydroxyphenyl)-4-((1S,3R)-3-((4-methylpiperazin-1-yl)methyl)cyclohexylamino)quinolin-3-yl)ethanone hydrochloride] |  |  |  | 0.81 |  |  |  | 0.79 | 0.58 | 0.6 | 2.7 | 
